Experimental data taken from patent US4151278A, “Process for the preparation of an extract of Teucrium marum used in particular in therapy” (Institut de Recherches Chimiques et Biologiques Appliquees, priority 1976, dated 1979).

System: spontaneous respiration in male guinea pigs
Test: Analeptic respiratory activity after morphine depression
Type: in vivo
Details: 20 mg/kg intravenously; reference; before morphine 58, 20 minutes after morphine 29
Description: The spontaneous respiration in male guinea pigs, weighing 400-600 g, which have been anaesthetized, is recorded by means of a tracheal probe connected to an electronic recorder.
In a first stage, the respiration is depressed by an intravenous injection of 10 mg/kg of morphine. In a second stage, 20 minutes after the morphine, the product to be studied is injected intravenously.
The respiratory rhythm is recorded before the injection of morphine, and before and 1 minute after the injection of the product to be studied.

In the case of `Cn1c(=O)c2[nH]cnc2n(C)c1=O` [theophylline], the “respiratory rhythm 1 minute after administration of the product” value is reported as 47 pulsations/minute.
